Where “and” joins values, the source holds several entries; their conditions need not be identical. Equal entries are not always repeated. Numbers after ± are expanded uncertainties.
Settings: Liquid; for mass density: vibrating tube

C1CCCC1 [cyclopentane]
Settings | mass density [kg/m3] | viscosity
273.15 K, 325900 kPa | – | 3.56 ± 0.071 mPa·s
273.15 K, 350700 kPa | – | 3.947 ± 0.079 mPa·s
273.15 K, 379200 kPa | – | 4.44 ± 0.089 mPa·s
278.15 K, 101.33 kPa | 759.64 ± 0.07 | –
278.16 K, 100 kPa | – | 0.5288 ± 0.011 mPa·s and 0.529 ± 0.011 mPa·s
278.16 K, 2900 kPa | – | 0.543 ± 0.011 mPa·s
278.16 K, 5000 kPa | – | 0.5539 ± 0.011 mPa·s
278.16 K, 8100 kPa | – | 0.5697 ± 0.011 mPa·s
278.16 K, 10800 kPa | – | 0.5838 ± 0.012 mPa·s
278.16 K, 25900 kPa | – | 0.6618 ± 0.013 mPa·s
278.16 K, 50800 kPa | – | 0.7981 ± 0.016 mPa·s
278.16 K, 75800 kPa | – | 0.9456 ± 0.019 mPa·s
278.16 K, 100600 kPa | – | 1.105 ± 0.022 mPa·s
278.16 K, 125700 kPa | – | 1.28 ± 0.026 mPa·s
278.16 K, 150700 kPa | – | 1.469 ± 0.029 mPa·s
278.16 K, 175800 kPa | – | 1.675 ± 0.034 mPa·s
278.16 K, 200700 kPa | – | 1.895 ± 0.038 mPa·s
278.16 K, 225800 kPa | – | 2.137 ± 0.043 mPa·s
278.16 K, 250800 kPa | – | 2.395 ± 0.048 mPa·s
278.16 K, 275900 kPa | – | 2.679 ± 0.054 mPa·s
278.16 K, 300800 kPa | – | 2.992 ± 0.06 mPa·s
278.16 K, 325900 kPa | – | 3.323 ± 0.067 mPa·s
278.16 K, 350900 kPa | – | 3.683 ± 0.074 mPa·s
278.16 K, 380100 kPa | – | 4.144 ± 0.083 mPa·s
283.15 K, 101.33 kPa | 754.76 ± 0.07 | –
287.93 K, 100 kPa | – | 0.471 ± 0.0095 mPa·s and 0.4712 ± 0.0095 mPa·s
287.93 K, 3000 kPa | – | 0.4845 ± 0.0097 mPa·s
287.93 K, 5400 kPa | – | 0.4955 ± 0.01 mPa·s
287.93 K, 8100 kPa | – | 0.5084 ± 0.01 mPa·s
287.93 K, 10800 kPa | – | 0.5216 ± 0.01 mPa·s
287.93 K, 25900 kPa | – | 0.5923 ± 0.012 mPa·s
287.93 K, 50900 kPa | – | 0.7153 ± 0.014 mPa·s
287.93 K, 75800 kPa | – | 0.8468 ± 0.017 mPa·s
287.93 K, 100800 kPa | – | 0.9885 ± 0.02 mPa·s
287.93 K, 125700 kPa | – | 1.143 ± 0.023 mPa·s
287.93 K, 150600 kPa | – | 1.308 ± 0.026 mPa·s
287.93 K, 175700 kPa | – | 1.488 ± 0.03 mPa·s
287.93 K, 200600 kPa | – | 1.681 ± 0.034 mPa·s
287.93 K, 225700 kPa | – | 1.893 ± 0.038 mPa·s
287.93 K, 250700 kPa | – | 2.121 ± 0.043 mPa·s
287.93 K, 275700 kPa | – | 2.361 ± 0.047 mPa·s
287.93 K, 300800 kPa | – | 2.623 ± 0.053 mPa·s
287.93 K, 325500 kPa | – | 2.901 ± 0.058 mPa·s
287.93 K, 349500 kPa | – | 3.196 ± 0.064 mPa·s
287.93 K, 376900 kPa | – | 3.563 ± 0.071 mPa·s
288.15 K, 101.33 kPa | 749.85 ± 0.07 | –
293.15 K, 101.33 kPa | 744.9 ± 0.07 | –
298 K, 100 kPa | – | 0.4191 ± 0.0084 mPa·s and 0.4196 ± 0.0084 mPa·s
298 K, 3000 kPa | – | 0.4308 ± 0.0087 mPa·s
298 K, 5300 kPa | – | 0.4404 ± 0.0089 mPa·s
298 K, 8100 kPa | – | 0.4526 ± 0.0091 mPa·s
298 K, 10900 kPa | – | 0.4644 ± 0.0093 mPa·s
298 K, 26000 kPa | – | 0.5288 ± 0.011 mPa·s
298 K, 50800 kPa | – | 0.639 ± 0.013 mPa·s
298 K, 75800 kPa | – | 0.7572 ± 0.015 mPa·s
298 K, 100800 kPa | – | 0.8842 ± 0.018 mPa·s
298 K, 125800 kPa | – | 1.021 ± 0.021 mPa·s
298 K, 150700 kPa | – | 1.167 ± 0.023 mPa·s
298 K, 175700 kPa | – | 1.324 ± 0.026 mPa·s
298 K, 200700 kPa | – | 1.495 ± 0.03 mPa·s
298 K, 225700 kPa | – | 1.678 ± 0.034 mPa·s
298 K, 250700 kPa | – | 1.874 ± 0.037 mPa·s
298 K, 275700 kPa | – | 2.085 ± 0.042 mPa·s
298 K, 300600 kPa | – | 2.311 ± 0.046 mPa·s
298 K, 324900 kPa | – | 2.542 ± 0.051 mPa·s
298 K, 349600 kPa | – | 2.793 ± 0.056 mPa·s
298 K, 375700 kPa | – | 3.084 ± 0.062 mPa·s
298.03 K, 100 kPa | – | 0.419 ± 0.0084 mPa·s
298.03 K, 5500 kPa | – | 0.441 ± 0.0089 mPa·s
298.03 K, 7800 kPa | – | 0.4505 ± 0.0091 mPa·s
298.03 K, 10800 kPa | – | 0.4637 ± 0.0093 mPa·s
298.03 K, 25900 kPa | – | 0.5276 ± 0.011 mPa·s
298.03 K, 50900 kPa | – | 0.6379 ± 0.013 mPa·s
298.03 K, 75800 kPa | – | 0.7549 ± 0.015 mPa·s
298.03 K, 100800 kPa | – | 0.8807 ± 0.018 mPa·s
298.03 K, 125800 kPa | – | 1.016 ± 0.02 mPa·s
298.03 K, 150700 kPa | – | 1.163 ± 0.023 mPa·s
298.03 K, 175700 kPa | – | 1.322 ± 0.026 mPa·s
298.03 K, 200700 kPa | – | 1.491 ± 0.03 mPa·s
298.03 K, 225600 kPa | – | 1.673 ± 0.034 mPa·s
298.03 K, 250600 kPa | – | 1.871 ± 0.037 mPa·s
298.03 K, 275600 kPa | – | 2.081 ± 0.042 mPa·s
298.03 K, 300400 kPa | – | 2.305 ± 0.046 mPa·s
298.03 K, 325300 kPa | – | 2.545 ± 0.051 mPa·s
298.03 K, 350100 kPa | – | 2.8 ± 0.056 mPa·s
298.03 K, 378000 kPa | – | 3.112 ± 0.062 mPa·s
298.15 K, 101.33 kPa | 739.92 ± 0.07 | –

101.33 kPa, Capillary tube (Ostwald / Ubbelohde) method
Settings | viscosity [mPa·s]
278.15 K | 0.523 ± 0.0036
283.15 K | 0.4932 ± 0.0035
288.15 K | 0.4657 ± 0.0033
293.15 K | 0.4405 ± 0.0032
298.15 K | 0.4173 ± 0.003
